Active and inactive are the calls of the source.
Legend:
INS1 = assay: INS-1E survival protection against cytokine death – cell-based, luminescence, retest, dose response (AID 449756); assay type: functional; settings: Rattus norvegicus;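 note: cell death triggered by IL-1 beta plus TNF-alpha plus IFN-gamma mixture; protective hits raise ATP signal compared with cytokine alone wells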
[1] = NIH-3T3 fibroblast cytotoxicity, dose response, cytotoxicity control, cell-based, fluorescence, Alamar Blue, secondary assay (AID 2327); assay type: functional;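 note: NIH-3T3 mouse fibroblasts cultured with fluconazole at 8 µg/mL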
Exodeoxyribonuclease V = biological target: T1, Exodeoxyribonuclease V (Escherichia coli (strain K12), UniProt P04993+P07648+P08394); assay: RecBCD inhibition via phage-restricted bacterial growth – absorbance, V66 E. coli, mutant T4 phage, counter-screen for AddAB inhibitor project, dose response (AID 492957); assay type: functional, cell-based, Escherichia coli str. K-12 substr. MG1655
T1 sequence (P04993 whole entry): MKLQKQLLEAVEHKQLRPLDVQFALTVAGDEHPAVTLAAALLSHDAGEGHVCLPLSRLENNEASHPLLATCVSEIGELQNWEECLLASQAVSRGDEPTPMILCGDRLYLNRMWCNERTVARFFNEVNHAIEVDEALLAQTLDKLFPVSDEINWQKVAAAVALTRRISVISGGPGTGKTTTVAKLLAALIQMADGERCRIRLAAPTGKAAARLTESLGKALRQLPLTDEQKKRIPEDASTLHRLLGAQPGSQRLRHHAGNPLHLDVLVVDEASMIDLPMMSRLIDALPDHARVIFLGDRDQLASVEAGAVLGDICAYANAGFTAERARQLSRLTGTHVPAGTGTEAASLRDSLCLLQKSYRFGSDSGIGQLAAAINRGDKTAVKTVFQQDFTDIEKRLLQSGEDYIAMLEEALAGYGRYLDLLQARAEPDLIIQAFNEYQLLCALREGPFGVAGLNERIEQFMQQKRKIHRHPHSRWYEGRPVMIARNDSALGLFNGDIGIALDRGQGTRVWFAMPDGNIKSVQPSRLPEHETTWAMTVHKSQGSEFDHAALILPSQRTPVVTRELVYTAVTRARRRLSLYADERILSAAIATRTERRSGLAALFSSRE
T1 sequence (P07648 whole entry): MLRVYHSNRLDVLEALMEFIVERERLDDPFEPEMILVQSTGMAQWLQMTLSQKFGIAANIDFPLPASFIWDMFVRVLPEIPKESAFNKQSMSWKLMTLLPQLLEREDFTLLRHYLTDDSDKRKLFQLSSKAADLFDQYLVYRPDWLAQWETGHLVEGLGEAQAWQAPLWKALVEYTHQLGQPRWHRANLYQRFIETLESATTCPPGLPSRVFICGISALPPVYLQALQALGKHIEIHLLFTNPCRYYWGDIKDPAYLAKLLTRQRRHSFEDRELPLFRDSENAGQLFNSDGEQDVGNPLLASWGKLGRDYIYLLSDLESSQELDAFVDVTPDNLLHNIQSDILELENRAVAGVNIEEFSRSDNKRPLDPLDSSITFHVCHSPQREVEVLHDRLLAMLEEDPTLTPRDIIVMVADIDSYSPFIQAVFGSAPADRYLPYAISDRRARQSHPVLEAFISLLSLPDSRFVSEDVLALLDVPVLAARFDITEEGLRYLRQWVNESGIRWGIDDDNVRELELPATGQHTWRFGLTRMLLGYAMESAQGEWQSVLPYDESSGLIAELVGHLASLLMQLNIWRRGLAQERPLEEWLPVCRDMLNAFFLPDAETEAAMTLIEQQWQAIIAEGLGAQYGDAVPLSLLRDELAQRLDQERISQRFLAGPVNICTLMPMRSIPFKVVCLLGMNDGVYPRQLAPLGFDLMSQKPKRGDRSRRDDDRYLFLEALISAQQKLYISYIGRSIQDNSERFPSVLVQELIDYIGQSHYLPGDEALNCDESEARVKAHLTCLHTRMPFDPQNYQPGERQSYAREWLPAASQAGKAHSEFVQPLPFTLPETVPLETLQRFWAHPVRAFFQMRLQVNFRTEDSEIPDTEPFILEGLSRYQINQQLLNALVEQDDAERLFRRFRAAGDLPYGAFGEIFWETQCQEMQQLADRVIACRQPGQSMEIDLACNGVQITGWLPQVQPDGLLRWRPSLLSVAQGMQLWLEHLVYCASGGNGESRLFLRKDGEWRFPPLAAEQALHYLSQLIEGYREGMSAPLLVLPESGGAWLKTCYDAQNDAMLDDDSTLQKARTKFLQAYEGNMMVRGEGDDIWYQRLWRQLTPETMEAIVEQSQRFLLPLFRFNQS
T1 sequence (P08394 whole entry): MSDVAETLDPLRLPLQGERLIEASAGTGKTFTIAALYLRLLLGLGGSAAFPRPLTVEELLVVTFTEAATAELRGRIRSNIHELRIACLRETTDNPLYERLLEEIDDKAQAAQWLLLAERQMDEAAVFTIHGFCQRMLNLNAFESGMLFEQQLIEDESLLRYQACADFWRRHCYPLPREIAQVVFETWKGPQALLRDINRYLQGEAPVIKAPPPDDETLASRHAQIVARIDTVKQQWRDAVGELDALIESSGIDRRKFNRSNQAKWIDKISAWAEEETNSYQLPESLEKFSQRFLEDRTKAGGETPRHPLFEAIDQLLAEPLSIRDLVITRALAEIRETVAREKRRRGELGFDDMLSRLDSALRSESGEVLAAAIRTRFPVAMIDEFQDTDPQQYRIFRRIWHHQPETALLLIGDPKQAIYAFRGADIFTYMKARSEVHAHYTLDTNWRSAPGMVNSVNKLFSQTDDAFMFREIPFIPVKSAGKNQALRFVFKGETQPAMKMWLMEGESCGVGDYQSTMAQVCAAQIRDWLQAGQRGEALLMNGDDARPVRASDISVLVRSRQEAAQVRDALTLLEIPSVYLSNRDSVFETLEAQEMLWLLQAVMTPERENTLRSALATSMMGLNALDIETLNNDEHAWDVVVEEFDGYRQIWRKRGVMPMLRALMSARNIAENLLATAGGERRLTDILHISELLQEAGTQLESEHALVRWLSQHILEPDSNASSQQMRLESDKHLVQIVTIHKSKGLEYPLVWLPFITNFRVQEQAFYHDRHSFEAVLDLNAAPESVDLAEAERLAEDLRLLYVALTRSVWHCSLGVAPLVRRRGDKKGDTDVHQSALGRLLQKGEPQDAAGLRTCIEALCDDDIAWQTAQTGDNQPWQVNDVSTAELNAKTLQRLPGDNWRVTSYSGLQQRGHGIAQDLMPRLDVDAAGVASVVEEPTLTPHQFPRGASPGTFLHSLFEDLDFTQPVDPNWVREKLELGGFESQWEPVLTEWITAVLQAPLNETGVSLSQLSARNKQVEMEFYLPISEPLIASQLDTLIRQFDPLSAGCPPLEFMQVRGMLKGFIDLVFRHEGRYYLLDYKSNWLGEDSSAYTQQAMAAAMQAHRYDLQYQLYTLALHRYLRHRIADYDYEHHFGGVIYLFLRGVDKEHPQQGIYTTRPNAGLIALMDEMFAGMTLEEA

[2] = Counterscreen for AddAB inhibitors: absorbance-based bacterial cell-based high throughput dose response assay for inhibitors of bacterial viability. [Related pubchem assays (depositor defined):AID435030, AID449728, AID449731, AID488942, AID488955, AID488956]; assay type: functional

| SMILES | AC50 (INS1) | EC50 [1] | IC50 (Exodeoxyribonuclease V) | IC50 [2] |
| --- | --- | --- | --- | --- |
| CCc1ccc(S(=O)(=O)/N=C2\C=C(Nc3ccc(C(=O)O)cc3)C(=O)c3ccccc32)cc1 | 11.3 µM (active) | – | – | – |
| COc1cccc(/C=N/Nc2ccc([N+](=O)[O-])cn2)c1O | 2.14 µM (active) | 1.61 µM (inconclusive) | > 118 µM (inactive) | > 118 µM (inactive) |
| Oc1c(C(c2ccccc2Cl)N2CCCC2)ccc2cccnc12 (centres undefined) | 3.41 µM (active) | > 160 µM (inactive) | 102 µM (inactive) | 95.3 µM (inactive) |
